The text below walks through data of article PMC11597478, “Kinin B1- and B2-Receptor Subtypes Contract Isolated Bovine Ciliary Muscle: Their Role in Ocular Lens Function and Intraocular Pressure Reduction” (Pharmaceuticals, 2024).

Assay [1] has as its system bovine ciliary muscle (BCM) strips. In words: tissue or blood. In kind it is cell-based. The note with it: for share of the maximal contraction accounted for by the first high affinity/potency phase: biphasic C-R curve, BCM strips; for Max. Tension Generated During Contraction: freshly isolated BCM strips, Krebs 37 °C, 1 g load, 7–11 concentrations (0.1 nM–10 µM), mean ± SEM, 3–8 experiments. Here is the method:
The methods utilized in the current studies were adapted from Lograno and Romano [13] and Ohia et al., with some minor modifications. Fresh bovine eyeballs were obtained from a local abattoir (Fisher Ham and Meat Company, Houston, TX, USA) and transported to the laboratory in ice. Whole eyeballs were placed in warm oxygenated Krebs buffer solution for 30 min to ensure equilibration before dissection of the ciliary muscle. Briefly, the anterior segment was dissected out of whole eyeballs after an incision was made at the limbus. The anterior segment containing the cornea, anterior uvea, and lens was then inverted and the lens dislodged with a probe along with the attached vitreous humor. After removal of the vitreous humor and lens, the whole ciliary muscle (comprising both longitudinal and circular portions) was quickly isolated and dissected from the scleral spur and choroid. Muscle strips of 4–5 mm in length were cut and mounted in 25 mL organ baths containing oxygenated Krebs solution at 37 °C using a silk thread linked to an isometric strain gauge under a constant load of 1g tension. The tissues were then allowed to equilibrate for 30 min. Two ciliary muscle strips were prepared from each eyeball and four to eight strips were used for each series of experiments. The composition of the Krebs solution used (mM) was NaCl, 118; KCl, 4.8; CaCl2, 2.5; KH2PO4, 1.2; NaHCO3, 25; MgSO4, 2.0; dextrose, 10 and flurbiprofen, 0.003 (pH 7.4), all purchased from Sigma-Aldrich, St. Louis, MO (USA). […] A robust response was characterized as a single contraction that consistently yielded a tension in the muscle induced by carbachol of 0.15–0.3 gm. […] Tissue strips were then thoroughly rinsed with fresh buffer solution via a series of buffer additions and drainage activities to remove any residual muscarinic agonist, and the preload was readjusted prior to starting the actual study with kininergic ligands. Concentration–response studies employed 7–11 compound concentrations (0.1 nM to 10 µM) and data from multiple experiments were collected.
The contractile responses obtained were expressed as gram tension developed and as percentages of the maximum response of each of the compounds. GraphPad Prism 4.0 Software (San Diego, CA, USA) was then used to construct the concentration–response curves for the kinins and to derive the half-maximal stimulation potencies (EC50) of each phase of the bi-phasic curves and the values tabulated as previously described.

For assay [2], the system named is bovine aortic endothelial cells. To be noted: ref [21]; cited from earlier work. The text has this: Figure 2 Chemical structures of bradykinin and its key analogs and those of the selective B1- and B2-receptor antagonists. The amino acid composition and linkage to form bradykinin and its analogs (linear peptides) are depicted in the upper panel.
Assay [3] deals with kinin B1 receptor (Mus musculus) (UniProt Q61125). The note with it: cited from earlier work.
UniProt Q61125, sequence (Q61125 whole entry): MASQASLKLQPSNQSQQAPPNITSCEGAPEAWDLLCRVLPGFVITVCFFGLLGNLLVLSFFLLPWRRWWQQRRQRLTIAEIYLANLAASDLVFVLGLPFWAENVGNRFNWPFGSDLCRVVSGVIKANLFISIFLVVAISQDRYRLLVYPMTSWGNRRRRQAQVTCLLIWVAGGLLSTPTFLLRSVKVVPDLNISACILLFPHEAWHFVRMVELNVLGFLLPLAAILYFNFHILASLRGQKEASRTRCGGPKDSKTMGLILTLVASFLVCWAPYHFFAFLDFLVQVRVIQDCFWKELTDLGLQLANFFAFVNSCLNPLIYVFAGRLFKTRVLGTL
The target of assay [4] is kinin B2 receptor (Oryctolagus cuniculus) (UniProt Q28642). The note with it: cited from earlier work.
UniProt Q28642, sequence (Q28642 whole entry): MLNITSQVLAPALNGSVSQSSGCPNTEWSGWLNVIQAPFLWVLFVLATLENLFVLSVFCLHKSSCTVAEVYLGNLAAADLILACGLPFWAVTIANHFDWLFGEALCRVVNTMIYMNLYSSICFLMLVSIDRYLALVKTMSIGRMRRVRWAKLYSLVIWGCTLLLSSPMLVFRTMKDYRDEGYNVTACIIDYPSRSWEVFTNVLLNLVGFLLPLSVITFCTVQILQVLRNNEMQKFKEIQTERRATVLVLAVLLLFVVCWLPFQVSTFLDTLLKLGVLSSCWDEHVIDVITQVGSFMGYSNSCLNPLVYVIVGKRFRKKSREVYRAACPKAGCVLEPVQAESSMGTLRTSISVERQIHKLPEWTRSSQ
Assay [5] concerns the target kinin B1 receptor (Homo sapiens) (UniProt P46663). To be noted: cited from earlier work.
UniProt P46663, sequence (P46663 whole entry): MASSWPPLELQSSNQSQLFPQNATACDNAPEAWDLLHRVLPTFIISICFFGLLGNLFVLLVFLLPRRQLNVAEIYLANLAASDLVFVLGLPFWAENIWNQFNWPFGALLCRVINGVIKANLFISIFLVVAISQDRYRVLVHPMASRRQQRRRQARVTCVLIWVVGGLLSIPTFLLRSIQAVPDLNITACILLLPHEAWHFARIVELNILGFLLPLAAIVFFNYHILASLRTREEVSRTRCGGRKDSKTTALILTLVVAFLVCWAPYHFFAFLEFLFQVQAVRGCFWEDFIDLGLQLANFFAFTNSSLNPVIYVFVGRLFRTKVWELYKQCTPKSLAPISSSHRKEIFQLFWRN
The target in assay [6] is kinin B2 receptor (Homo sapiens) (UniProt P30411). The note with it: cited from earlier work.
UniProt P30411, sequence (P30411 whole entry): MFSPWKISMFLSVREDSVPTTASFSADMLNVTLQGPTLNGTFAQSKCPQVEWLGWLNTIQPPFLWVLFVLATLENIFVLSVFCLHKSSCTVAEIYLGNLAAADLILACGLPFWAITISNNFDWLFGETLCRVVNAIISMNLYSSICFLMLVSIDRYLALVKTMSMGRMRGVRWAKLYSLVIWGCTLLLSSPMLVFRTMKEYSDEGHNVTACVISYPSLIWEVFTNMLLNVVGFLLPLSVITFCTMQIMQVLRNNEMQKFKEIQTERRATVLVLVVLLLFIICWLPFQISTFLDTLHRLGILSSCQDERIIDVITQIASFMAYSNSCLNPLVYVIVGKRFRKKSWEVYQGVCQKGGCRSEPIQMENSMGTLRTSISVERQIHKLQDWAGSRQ
In assay [7] the target is kinin B1 receptor (Mus musculus) (UniProt Q61125). The note with it: cited from earlier work. The source holds these as a separate data set.
The target of assay [8] is kinin B1 receptor (Oryctolagus cuniculus) (UniProt P48748). To be noted: cited from earlier work.
UniProt P48748, sequence (P48748 whole entry): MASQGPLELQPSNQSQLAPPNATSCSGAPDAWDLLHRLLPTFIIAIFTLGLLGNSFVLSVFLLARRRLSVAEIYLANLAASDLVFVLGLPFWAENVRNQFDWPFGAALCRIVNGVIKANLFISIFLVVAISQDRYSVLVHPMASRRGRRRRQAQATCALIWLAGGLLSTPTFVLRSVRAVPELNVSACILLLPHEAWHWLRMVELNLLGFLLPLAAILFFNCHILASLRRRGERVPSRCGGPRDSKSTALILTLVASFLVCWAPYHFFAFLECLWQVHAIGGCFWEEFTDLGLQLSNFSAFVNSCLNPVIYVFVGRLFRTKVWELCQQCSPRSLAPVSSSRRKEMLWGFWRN
In assay [9] the target is kinin B2 receptor (Mus musculus) (UniProt P32299). To be noted: cited from earlier work.
UniProt P32299, sequence (P32299 whole entry): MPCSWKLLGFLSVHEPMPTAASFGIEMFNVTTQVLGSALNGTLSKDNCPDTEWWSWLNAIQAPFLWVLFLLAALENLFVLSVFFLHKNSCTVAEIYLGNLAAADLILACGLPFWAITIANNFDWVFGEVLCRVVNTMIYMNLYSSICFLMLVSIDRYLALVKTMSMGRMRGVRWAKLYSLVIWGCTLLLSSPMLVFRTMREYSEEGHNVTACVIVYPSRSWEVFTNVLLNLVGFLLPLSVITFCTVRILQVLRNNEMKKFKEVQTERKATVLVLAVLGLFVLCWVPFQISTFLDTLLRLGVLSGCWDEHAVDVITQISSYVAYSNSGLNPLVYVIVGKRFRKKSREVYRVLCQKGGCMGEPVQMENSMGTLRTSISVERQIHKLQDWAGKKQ
Another assay deals with rat uterus strips. The note with it: B2-receptor-mediated contraction; ref [1],[2],[3],[18],[20],[23]; read-out: Functional potency, RUT, HP Site; cited from earlier work. The text has this: Table 2 Ability of BK and Des-Arg^9-BK to Contract Various Tissues of Different Species or to Mobilize Intracellular Ca^2+ in human Ocular Cells. | column: RUT
Assay [10] deals with human ciliary muscle (hCM) cells. The note with it: [Ca2+]i mobilization, first value of cell; single B2-receptor subtype; ref [2],[8]; read-out: Functional potency, hCM Cells, HP Site; cited from earlier work. The text has this:
(§1) Table 2 Ability of BK and Des-Arg^9-BK to Contract Various Tissues of Different Species or to Mobilize Intracellular Ca^2+ in human Ocular Cells. | column: hCM/hTM Cells

The subject of assay [11] is human trabecular meshwork (hTM) cells. To be noted: [Ca2+]i mobilization, second value of cell; single B2-receptor subtype; ref [2],[8]; read-out: Functional potency, hTM Cells, HP Site; cited from earlier work.
Description: as §1

Assay [12] concerns the target cloned B2 receptor. The note with it: ref [1]; read-out: Ki, cloned B2 receptor (mouse); cited from earlier work.
The target of assay [13] is cloned B2 receptor. To be noted: ref [1]; read-out: Ki, cloned B2 receptor (rabbit); cited from earlier work.
In assay [14] the target is cloned B2 receptor. To be noted: ref [1]; cited from earlier work.
In the next assay the test system is rat ileum. To be noted: B1-receptor in rat ileum, contraction; ref [25]; read-out: Functional potency, RI, HP Site; cited from earlier work. The text has this: Table 2 Ability of BK and Des-Arg^9-BK to Contract Various Tissues of Different Species or to Mobilize Intracellular Ca^2+ in human Ocular Cells. | column: RI || In the current studies, both BK and Des-Arg^9-BK contracted the BCM in a biphasic fashion, indicating the involvement of both B1 and B2 receptors in the smooth muscle contraction process. Other agonist peptides related to BK also elicited similar profiles of contractility, thereby substantiating the effects of BK and Des-Arg^9-BK in this specific tissue. Furthermore, the role of both kinin receptor subtypes being responsible for contracting BCM in vitro was confirmed by sequentially recording the functional responses of the tissue in the presence of B1- and B2-receptor antagonists in numerous ...

A further assay concerns human umbilical vein. To be noted: B2-receptor-mediated contraction; ref [1],[2],[3],[18],[20],[23]; read-out: Functional potency, HUV, HP Site; cited from earlier work. The text has this: Table 2 Ability of BK and Des-Arg^9-BK to Contract Various Tissues of Different Species or to Mobilize Intracellular Ca^2+ in human Ocular Cells. | column: HUV

Read-outs that look alike come from different tables or passages of the source. Square brackets hold non-standard residues; d marks the D form. Peptide text beside a SMILES is read from it. * marks the point of attachment. X1 = COc1ccc(C[C@@H](CN[C@@H](CCCNC(=N)N)C(=O)O)N*)cc1; Hyp = O=C(O)[C@@H]1C[C@@H](O)CN1; 2Thi = N[C@@H](Cc1cccs1)C(=O)O

For the compound `COc1ccc(C[C@@H](CN[C@@H](CCCNC(=N)N)C(=O)O)NC(=O)[C@@H]2CCCN2C(=O)[C@H](CO)NC(=O)[C@H](Cc2cccs2)NC(=O)CNC(=O)[C@@H]2C[C@@H](O)CN2C(=O)[C@@H]2CCCN2C(=O)[C@@H](N)CCCNC(=N)N)cc1` [RMP-7] (H-RP[Hyp]G[2Thi]SP-X1), in assay [1], the EC50 is 3.5 ± 0.5 nM, the “share of the maximal contraction accounted for by the first high affinity/potency phase” value (“share … by the first high affinity/potency phase” for short) is 40–60% and the “Max. Tension Generated During Contraction” value came to 0.07 ± 0.01 gm tension.
Take `CSCC[C@H](N)C(=O)N[C@@H](CCCCN)C(=O)N[C@@H](CCCNC(=N)N)C(=O)N1CCC[C@H]1C(=O)N1CCC[C@H]1C(=O)NCC(=O)N[C@@H](Cc1ccccc1)C(=O)N[C@@H](CO)C(=O)N1CCC[C@H]1C(=O)N[C@@H](Cc1ccccc1)C(=O)N[C@@H](CCCNC(=N)N)C(=O)O` [Met-Lys-BK, Met-Lys-Bradykinin]: in assay [1], the “share … by the first high affinity/potency phase” value is recorded as 40–60% and the “Max. Tension Generated During Contraction” value was 0.06 ± 0.01 gm tension.
Regarding `CN1[C@@H]2CC[C@H]1C[C@@H](OC(=O)C(CO)c1ccccc1)C2` (stereo partly shown) [atropine], in assay [1] (Bos taurus, carbachol C-R curve in the absence and presence of atropine, n = 6, read-out: potency (EC50) from monophasic carbachol concentration-response curve), the EC50 stood at 1000 ± 70 nM. Moreover, the “effect of muscarinic antagonist on carbachol-induced BCM contraction” value in [1] (increasing concentrations of atropine, n = 6–8) is reported as “concentration-dependently blocked”.
`CCCC[P+](CCCC)(CCCC)Cc1ccc(NC(=O)[C@H](Cc2ccc3ccccc3c2)NC(=NC2CCCCC2)NC2CCCCC2)cc1.[Cl-]` [WIN-64338]: in assay [2], the “effect on cGMP production induced by Des-Arg^9-BK” value was “block the cGMP-producing effects of Des-Arg^9-BK”.
On to “Des-Arg9-bradykinin (from UniProt P01042)”, for which, in assay [3], the inhibition constant (Ki) is 0.7 nM.
For the compound Bradykinin (from UniProt P01042), the inhibitory constant (Ki) was 4.5 nM in assay [4]; 10000 nM in assay [5]; 0.54 nM in assay [6]; 200 nM in assay [7]; 5000 nM in assay [8]; 0.48 nM in assay [9].
Turning to `N=C(N)NCCC[C@H](N)C(=O)N1CCC[C@H]1C(=O)N1CCC[C@H]1C(=O)NCC(=O)N[C@@H](Cc1ccccc1)C(=O)N[C@@H](CO)C(=O)N1CCC[C@H]1C(=O)N[C@@H](Cc1ccccc1)C(=O)O` [Des-Arg^9-BK, Des-Arg^9-Bradykinin], the EC50 in the assay on rat uterus strips is greater than 1000 nM; in assay [10], 4200 nM; in assay [11], 3600 nM; in assay [1] it was 30 ± 1.9 nM; in the assay on rat ileum, 18.6 nM; in the assay with human umbilical vein, greater than 1000 nM. In addition, the inhibitory constant (Ki) at cloned B2 receptor [12] was 6400 nM; at cloned B2 receptor [13], greater than 1000 nM; on cloned B2 receptor [14], 8100 nM. For the same compound, the “share … by the first high affinity/potency phase” value in assay [1] is listed as 40–60%. The “Max. Tension Generated During Contraction” value in assay [1] is 0.06 ± 0.01 gm tension.
Take `C[N+](C)(C)CCOC(N)=O` [carbachol]: in assay [1] (monophasic concentration-dependent profile, n = 6–8), the “contraction of BCM by positive control agent” value was “always contracted the tissue”.
Turning to `N=C(N)NCCC[C@H](NC(=O)[C@H](Cc1ccccc1)NC(=O)[C@@H]1CCCN1C(=O)[C@H](CO)NC(=O)[C@H](Cc1ccccc1)NC(=O)CNC(=O)[C@@H]1C[C@@H](O)CN1C(=O)[C@@H]1CCCN1C(=O)[C@@H](N)CCCNC(=N)N)C(=O)O` [Hyp^3-BK, Hyp^3-Bradykinin], in [1], the “share … by the first high affinity/potency phase” value is 40–60% and the “Max. Tension Generated During Contraction” value is on record as 0.04 ± 0.01 gm tension.
Regarding `N=C(N)NCCC[C@H](NC(=O)[C@H](Cc1ccccc1)NC(=O)[C@@H]1CCCN1C(=O)[C@H](CO)NC(=O)[C@H](Cc1ccccc1)NC(=O)CNC(=O)[C@@H]1CCCN1C(=O)[C@@H]1CCCN1C(=O)[C@H](CCCNC(=N)N)NC(=O)[C@@H](N)CCCCN)C(=O)O` [Lys-BK, Lys-Bradykinin], in [1], the “share … by the first high affinity/potency phase” value was 40–60% and the “Max. Tension Generated During Contraction” value came out at 0.06 ± 0.01 gm tension.
